For one experiment, the target named is FXa (Homo sapiens, UniProt P00742). Put plainly: Factor Xa inhibition (FXa-IC50). In kind it is biochemical. The source says: The inhibition of factor Xa by the compounds according to the invention and the measurement of the anticoagulant and antithrombotic activity can be determined by conventional in-vitro or in-vivo methods. A suitable method is described, for example, by J. Hauptmann et al. in Thrombosis and Haemostasis 1990, 63, 220-223.
The inhibition of factor Xa can be measured, for example by the method of T. Hara et al. in Thromb. Haemostas. 1994, 71, 314-319.

The next experiment addresses TF/FVIIa (Homo sapiens, UniProt P08709). Put plainly: TF/FVIIa inhibition (TF/FVIIa-IC50). In kind it is biochemical. The text has this:
Coagulation factor VIIa initiates the extrinsic part of the coagulation cascade after binding to tissue factor and contributes to the activation of factor X to give factor Xa. Inhibition of factor Vila thus prevents the formation of factor Xa and thus subsequent thrombin formation. The inhibition of factor Vila by the compounds according to the invention and the measurement of the anticoagulant and antithrombotic activity can be determined by conventional in-vitro or in-vivo methods. A conventional method for the measurement of the inhibition of factor VIIa is described, for example, by H. F. Ronning et al. in Thrombosis Research 1996, 84, 73-81.

FXa, sequence (P00742 235-488 limits assumed): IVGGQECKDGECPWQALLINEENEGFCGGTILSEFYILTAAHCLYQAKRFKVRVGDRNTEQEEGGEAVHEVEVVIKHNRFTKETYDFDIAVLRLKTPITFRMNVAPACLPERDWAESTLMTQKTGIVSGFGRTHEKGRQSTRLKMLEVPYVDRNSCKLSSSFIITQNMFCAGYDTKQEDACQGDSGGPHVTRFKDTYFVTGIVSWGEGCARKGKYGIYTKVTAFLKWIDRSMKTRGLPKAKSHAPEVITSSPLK
FXa, sequence (P00742 41-179 partner limits assumed): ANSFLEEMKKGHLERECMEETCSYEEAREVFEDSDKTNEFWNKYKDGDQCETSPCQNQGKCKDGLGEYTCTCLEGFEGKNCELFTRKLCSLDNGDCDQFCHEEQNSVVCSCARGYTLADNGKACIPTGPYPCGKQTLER
TF/FVIIa, sequence (P08709 213-466 limits assumed): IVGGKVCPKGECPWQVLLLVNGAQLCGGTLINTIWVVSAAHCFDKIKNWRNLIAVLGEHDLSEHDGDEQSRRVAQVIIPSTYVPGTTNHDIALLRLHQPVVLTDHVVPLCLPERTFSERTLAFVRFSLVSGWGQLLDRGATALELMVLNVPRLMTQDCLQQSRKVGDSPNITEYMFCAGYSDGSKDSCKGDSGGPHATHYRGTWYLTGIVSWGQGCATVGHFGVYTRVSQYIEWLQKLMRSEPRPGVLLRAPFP
TF/FVIIa, sequence (P08709 61-212 partner limits assumed): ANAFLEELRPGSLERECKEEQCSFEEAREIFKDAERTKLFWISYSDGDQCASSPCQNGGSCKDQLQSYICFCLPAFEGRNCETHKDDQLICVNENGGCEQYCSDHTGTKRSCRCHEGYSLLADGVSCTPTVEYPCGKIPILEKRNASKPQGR
TF/FVIIa, sequence (P13726 33-295 partner): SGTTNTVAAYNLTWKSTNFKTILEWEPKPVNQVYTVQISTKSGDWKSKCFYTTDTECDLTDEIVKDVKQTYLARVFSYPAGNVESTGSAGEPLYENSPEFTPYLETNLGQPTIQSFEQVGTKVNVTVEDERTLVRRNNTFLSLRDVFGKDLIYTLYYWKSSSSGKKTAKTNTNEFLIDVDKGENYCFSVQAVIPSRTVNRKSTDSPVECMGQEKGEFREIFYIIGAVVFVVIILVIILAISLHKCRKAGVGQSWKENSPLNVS

Broadly, the IC50 is the point on the concentration scale where inhibition reaches its midpoint. A low value points to greater potency. On to `Cc1cc(NC(=O)[C@@H](CC(C)C)NC(=O)c2ccc(Cl)s2)ccc1N1CCOCC1=O` [Compound 1A, (R)-2-[(5-chlorothiophene-2-carbonyl)amino]-N-[3-methyl-4-(3-oxomorpholin-4-yl)phenyl]-4-methylvaleramide], for which the values for the IC50 against FXa and on TF/FVIIa were 7.3 nM and 6.9 nM, respectively.

In turn, `CC(C)C[C@@H](NC(=O)c1ccc(Cl)s1)C(=O)Nc1ccc(-n2ccncc2=O)cc1` [Compound 2A, (R)-2-[(5-chlorothiophene-2-carbonyl)amino]-N-[4-(2-oxo-2H-pyrazin-1-yl)phenyl]4-methylvaleramide] yielded an IC50 against FXa of 39 nM.

As to `CC(C)C[C@@H](NC(=O)c1ccc(Cl)s1)C(=O)Nc1ccc(N2CCCCC2=N)cc1` [Compound 4A, (R)-2-[(5-chlorothiophene-2-carbonyl)amino]-N-[4-(2-iminopiperidin-1-yl)phenyl]-4-methylvaleramide], the IC50 against FXa came to 25 nM.

`CC(C)C[C@H](NC(=O)c1ccc(Cl)s1)C(=O)Nc1ccc(N2CCCCC2=N)cc1` [Compound 4B, (S)-2-[(5-chlorothiophene-2-carbonyl)amino]-N-[4-(2-iminopiperidin-1-yl)phenyl]-4-methylvaleramide] yielded a half-maximal inhibitory concentration (IC50) on FXa of 260 nM.
